In ChEMBL document CHEMBL4342421, “Current scenario of tetrazole hybrids for antibacterial activity” (Eur J Med Chem, 2019):
Values after ≈ are worked out from the molar mass of the structure shown.

Columns and labels:
Assay type in all cases: functional
Aspergillus niger [1] = test: Antifungal activity against Aspergillus niger
Fusarium oxysporum = test: Antifungal activity against Fusarium oxysporum
Aspergillus flavus [2] = test: Antifungal activity against Aspergillus flavus
Staphylococcus aureus [3] = test: Antibacterial activity against methicillin resistant Staphylococcus aureus N315 after 24 hrs by two-fold broth serial dilution method; conditions: N315, 24 h
Candida albicans [4] = test: Antifungal activity against Candida albicans ATCC 76615 after 24 hrs; conditions: ATCC 76615, 24 h
Aspergillus flavus [5] = test: Antifungal activity against Aspergillus flavus after 24 hrs
Micrococcus luteus = test: Antibacterial activity against Micrococcus luteus ATCC 4698 after 24 hrs by two-fold broth serial dilution method; conditions: ATCC 4698, 24 h
Shigella dysenteriae = test: Antimicrobial activity against Shigella dysenteriae after 24 hrs by two-fold broth serial dilution method
Cyberlindnera jadinii = test: Antifungal activity against Candida utilis after 24 hrs; conditions: Williopsis jadinii
Saccharomyces cerevisiae = test: Antifungal activity against Saccharomyces cerevisiae after 24 hrs
Escherichia coli [6] = test: Antimicrobial activity against Escherichia coli JM 109 after 24 hrs by two-fold broth serial dilution method; conditions: JM 109, 24 h
Pichia norvegensis = test: Antifungal activity against Candida mycoderma after 24 hrs
Bacillus subtilis = test: Antibacterial activity against Bacillus subtilis ATCC 21216 after 24 hrs by two-fold broth serial dilution method; conditions: ATCC 21216, 24 h
Pseudomonas aeruginosa [7] = test: Antimicrobial activity against Pseudomonas aeruginosa ATCC 27853 after 24 hrs by two-fold broth serial dilution method; conditions: ATCC 27853, 24 h
Staphylococcus aureus [8] = test: Antimicrobial activity against Staphylococcus aureus
Escherichia coli [9] = test: Antimicrobial activity against Escherichia coli
Candida albicans [10] = test: Antifungal activity against Candida albicans
Pseudomonas aeruginosa [11] = test: Antimicrobial activity against Pseudomonas aeruginosa
Bacillus cereus [12] = test: Antimicrobial activity against Bacillus cereus assessed as zone of inhibition at 250 ug/ml; conditions: read-out: IZ
Pseudomonas aeruginosa [13] = test: Antimicrobial activity against Pseudomonas aeruginosa assessed as zone of inhibition at 250 ug/ml; conditions: read-out: IZ
Candida albicans [14] = test: Antifungal activity against Candida albicans assessed as zone of inhibition at 250 ug/ml; conditions: read-out: IZ
Escherichia coli [15] = test: Antimicrobial activity against Escherichia coli assessed as zone of inhibition at 250 ug/ml after 24 hrs by disk diffusion method; conditions: read-out: IZ
Escherichia coli [16] = test: Antimicrobial activity against Escherichia coli assessed as zone of inhibition at 250 ug/ml; conditions: read-out: IZ
Bacillus cereus [17] = test: Antimicrobial activity against Bacillus cereus
Staphylococcus aureus [18] = test: Antimicrobial activity against Staphylococcus aureus assessed as zone of inhibition at 250 ug/ml; conditions: read-out: IZ
Aspergillus niger [19] = test: Antifungal activity against Aspergillus niger assessed as zone of inhibition at 250 ug/ml; conditions: read-out: IZ

Row | Compound | MIC (Aspergillus niger [1]) [µg/mL] | MIC (Staphylococcus aureus [3]) [µg/mL] | MIC (Candida albicans [4]) [µg/mL] | MIC (Aspergillus flavus [5]) [µg/mL] | MIC (Micrococcus luteus) [µg/mL] | MIC (Shigella dysenteriae) [µg/mL] | MIC (Cyberlindnera jadinii) [µg/mL] | MIC (Saccharomyces cerevisiae) [µg/mL] | MIC (Escherichia coli [6]) [µg/mL] | MIC (Pichia norvegensis) [µg/mL] | MIC (Bacillus subtilis) [µg/mL] | MIC (Pseudomonas aeruginosa [7]) [µg/mL] | also measured
1 | c1ccc(-n2cc(-c3nnn[nH]3)nn2)cc1 | 100 (≈ 469 µM) |  |  |  |  |  |  |  |  |  |  |  | MIC (Fusarium oxysporum): 100 µg/mL (≈ 469 µM); MIC (Aspergillus flavus [2]): 100 µg/mL (≈ 469 µM)
2 | Cc1cc(=O)oc2cc(OCC(O)Cn3nnnc3C)cc(OCC(O)Cn3nnnc3C)c12 (stereo unspecified) |  | 32 to 512 (≈ 67.7 to 1080 µM) | 32 to 512 (≈ 67.7 to 1080 µM) | 32 to 512 (≈ 67.7 to 1080 µM) | 32 to 512 (≈ 67.7 to 1080 µM) | 32 to 512 (≈ 67.7 to 1080 µM) | 32 to 512 (≈ 67.7 to 1080 µM) | 32 to 512 (≈ 67.7 to 1080 µM) | 32 to 512 (≈ 67.7 to 1080 µM) | 32 to 512 (≈ 67.7 to 1080 µM) | 32 to 512 (≈ 67.7 to 1080 µM) | 32 to 512 (≈ 67.7 to 1080 µM) | 
3 | OC(Cn1cncn1)(Cn1cncn1)c1ccc(F)cc1F [FLUCONAZOLE] | 25 (≈ 81.6 µM) | 1 to 256 (≈ 3.27 to 836 µM) | 1 to 256 (≈ 3.27 to 836 µM) | 1 to 256 (≈ 3.27 to 836 µM) | 1 to 256 (≈ 3.27 to 836 µM) | 1 to 256 (≈ 3.27 to 836 µM) | 1 to 256 (≈ 3.27 to 836 µM) | 1 to 256 (≈ 3.27 to 836 µM) | 1 to 256 (≈ 3.27 to 836 µM) | 1 to 256 (≈ 3.27 to 836 µM) | 1 to 256 (≈ 3.27 to 836 µM) | 1 to 256 (≈ 3.27 to 836 µM) | MIC (Staphylococcus aureus [8]): 25 µg/mL (≈ 81.6 µM); MIC (Escherichia coli [9]): 25 µg/mL (≈ 81.6 µM); MIC (Candida albicans [10]): 25 µg/mL (≈ 81.6 µM); MIC (Pseudomonas aeruginosa [11]): 25 µg/mL (≈ 81.6 µM)
4 | Cc1cc(=O)oc2cc(OCC(O)Cn3cnnn3)cc(OCC(O)Cn3cnnn3)c12 (stereo unspecified) |  | 32 to 512 (≈ 72 to 1150 µM) | 32 to 512 (≈ 72 to 1150 µM) | 32 to 512 (≈ 72 to 1150 µM) | 32 to 512 (≈ 72 to 1150 µM) | 32 to 512 (≈ 72 to 1150 µM) | 32 to 512 (≈ 72 to 1150 µM) | 32 to 512 (≈ 72 to 1150 µM) | 32 to 512 (≈ 72 to 1150 µM) | 32 to 512 (≈ 72 to 1150 µM) | 32 to 512 (≈ 72 to 1150 µM) | 32 to 512 (≈ 72 to 1150 µM) | 
5 | Cc1cc(=O)oc2cc(OCC(O)Cn3cnnn3)ccc12 (stereo unspecified) |  | 8 to 512 (≈ 26.5 to 1690 µM) | 8 to 512 (≈ 26.5 to 1690 µM) | 8 to 512 (≈ 26.5 to 1690 µM) | 8 to 512 (≈ 26.5 to 1690 µM) | 8 to 512 (≈ 26.5 to 1690 µM) | 8 to 512 (≈ 26.5 to 1690 µM) | 8 to 512 (≈ 26.5 to 1690 µM) | 8 to 512 (≈ 26.5 to 1690 µM) | 8 to 512 (≈ 26.5 to 1690 µM) | 8 to 512 (≈ 26.5 to 1690 µM) | 8 to 512 (≈ 26.5 to 1690 µM) | 
6 | O=[N+]([O-])c1ccc(-c2nnnn2-c2nc3ccccc3s2)cc1 | 50 to 100 (≈ 154 to 308 µM) |  |  |  |  |  |  |  |  |  |  |  | MIC (Staphylococcus aureus [8]): 50 to 100 µg/mL (≈ 154 to 308 µM); zone of inhibition at 250 µg/mL (Bacillus cereus [12]): 16 to 26 mm; zone of inhibition at 250 µg/mL (Pseudomonas aeruginosa [13]): 16 to 26 mm; zone of inhibition at 250 µg/mL (Candida albicans [14]): 16 to 26 mm; zone of inhibition at 250 µg/mL (Escherichia coli [15]): 18 to 26 mm; zone of inhibition at 250 µg/mL (Escherichia coli [16]): 16 to 26 mm; MIC (Bacillus cereus [17]): 50 to 100 µg/mL (≈ 154 to 308 µM); zone of inhibition at 250 µg/mL (Staphylococcus aureus [18]): 16 to 26 mm; MIC (Escherichia coli [9]): 50 to 100 µg/mL (≈ 154 to 308 µM); MIC (Candida albicans [10]): 50 to 100 µg/mL (≈ 154 to 308 µM); MIC (Pseudomonas aeruginosa [11]): 50 to 100 µg/mL (≈ 154 to 308 µM); zone of inhibition at 250 µg/mL (Aspergillus niger [19]): 16 to 26 mm
7 | CCn1cc(C(=O)O)c(=O)c2cc(F)c(N3CCNCC3)cc21 [NORFLOXACIN] |  | 1 to 16 (≈ 3.13 to 50.1 µM) | 1 to 16 (≈ 3.13 to 50.1 µM) | 1 to 16 (≈ 3.13 to 50.1 µM) | 1 to 16 (≈ 3.13 to 50.1 µM) | 1 to 16 (≈ 3.13 to 50.1 µM) | 1 to 16 (≈ 3.13 to 50.1 µM) | 1 to 16 (≈ 3.13 to 50.1 µM) | 1 to 16 (≈ 3.13 to 50.1 µM) | 1 to 16 (≈ 3.13 to 50.1 µM) | 1 to 16 (≈ 3.13 to 50.1 µM) | 1 to 16 (≈ 3.13 to 50.1 µM) | 
